Assay results: ChEMBL document CHEMBL2074039 (Biochem Pharmacol, 1993)

What was measured:
[1] = target: T1, ATP-dependent translocase ABCB1 (Homo sapiens, UniProt P08183); assay: TP_TRANSPORTER: inhibition of Azidopine photoaffinity labelling (Azidopine: 0.2 uM, trans-flupenthioxol: 1 uM) in membranes from KB/V20C cells; assay type: functional, cell membranes, Membrane
[2] = target: T1, ATP-dependent translocase ABCB1; assay: TP_TRANSPORTER: increase in Doxorubicin intracellular accumulation (Doxorubicin: 0-20 uM, trans-flupenthixol: 5 uM) in MCF-7/ADR cells; assay type: functional, cell-based; details: nci/adr-res

T1 sequence (P08183 whole entry): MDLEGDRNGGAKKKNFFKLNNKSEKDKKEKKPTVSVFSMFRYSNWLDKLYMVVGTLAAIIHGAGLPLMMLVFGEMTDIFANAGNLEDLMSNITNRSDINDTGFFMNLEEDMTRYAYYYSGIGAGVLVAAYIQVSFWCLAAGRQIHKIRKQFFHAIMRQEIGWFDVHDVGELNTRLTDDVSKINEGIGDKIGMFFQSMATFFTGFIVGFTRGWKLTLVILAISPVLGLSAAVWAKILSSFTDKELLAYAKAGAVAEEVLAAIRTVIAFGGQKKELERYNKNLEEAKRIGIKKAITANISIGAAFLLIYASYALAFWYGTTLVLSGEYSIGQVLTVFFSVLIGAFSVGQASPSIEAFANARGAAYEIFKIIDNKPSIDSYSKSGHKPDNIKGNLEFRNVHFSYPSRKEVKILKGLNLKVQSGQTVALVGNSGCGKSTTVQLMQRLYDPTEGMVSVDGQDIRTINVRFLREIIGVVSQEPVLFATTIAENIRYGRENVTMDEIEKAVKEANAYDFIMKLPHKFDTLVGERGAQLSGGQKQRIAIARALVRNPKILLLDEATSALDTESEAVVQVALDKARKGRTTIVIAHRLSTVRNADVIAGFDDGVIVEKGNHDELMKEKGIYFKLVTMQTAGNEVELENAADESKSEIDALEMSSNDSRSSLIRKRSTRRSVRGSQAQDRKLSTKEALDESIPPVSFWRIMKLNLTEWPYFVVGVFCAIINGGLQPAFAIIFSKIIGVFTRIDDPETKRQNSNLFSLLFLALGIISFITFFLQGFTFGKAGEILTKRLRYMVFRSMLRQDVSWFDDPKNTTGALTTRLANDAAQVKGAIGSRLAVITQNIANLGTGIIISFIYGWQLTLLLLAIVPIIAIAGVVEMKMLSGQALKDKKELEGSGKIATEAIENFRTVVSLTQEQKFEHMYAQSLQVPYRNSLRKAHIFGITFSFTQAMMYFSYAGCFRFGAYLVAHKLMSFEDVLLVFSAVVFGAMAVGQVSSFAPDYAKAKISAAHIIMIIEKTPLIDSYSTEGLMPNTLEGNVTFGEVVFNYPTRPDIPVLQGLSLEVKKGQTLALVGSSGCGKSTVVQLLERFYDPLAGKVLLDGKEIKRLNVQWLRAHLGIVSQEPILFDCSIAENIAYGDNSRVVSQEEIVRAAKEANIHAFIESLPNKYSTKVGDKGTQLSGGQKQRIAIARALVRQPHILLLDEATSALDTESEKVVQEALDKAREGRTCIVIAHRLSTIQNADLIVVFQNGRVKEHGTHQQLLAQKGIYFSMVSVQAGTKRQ

Activity [1]: inhibitor [+] | Activity [2]: inhibitor [2 to 3-fold]
Compound: OCCN1CCN(CC/C=C2\c3ccccc3Sc3ccc(C(F)(F)F)cc32)CC1 [E-FLUPENTIXOL]
